Our source for the IC50 values is patent US10072001B2, “Tank-binding kinase inhibitor compounds” (Gilead Sciences, Inc., priority 2014, dated 2018).

For one assay, the target named is TBK1 (Homo sapiens (Human), UniProt Q9UHD2). Briefly: TR-FRET kinase assay, TBK1. As to conditions: read-out: TBK1-IC50; full length recombinant TBK1 2.5 nM, 2x Km ATP, 1 μM peptide, 240 min at 25° C.; geometric mean of minimum four determinations.
Chain of TBK1 (Q9UHD2 whole entry): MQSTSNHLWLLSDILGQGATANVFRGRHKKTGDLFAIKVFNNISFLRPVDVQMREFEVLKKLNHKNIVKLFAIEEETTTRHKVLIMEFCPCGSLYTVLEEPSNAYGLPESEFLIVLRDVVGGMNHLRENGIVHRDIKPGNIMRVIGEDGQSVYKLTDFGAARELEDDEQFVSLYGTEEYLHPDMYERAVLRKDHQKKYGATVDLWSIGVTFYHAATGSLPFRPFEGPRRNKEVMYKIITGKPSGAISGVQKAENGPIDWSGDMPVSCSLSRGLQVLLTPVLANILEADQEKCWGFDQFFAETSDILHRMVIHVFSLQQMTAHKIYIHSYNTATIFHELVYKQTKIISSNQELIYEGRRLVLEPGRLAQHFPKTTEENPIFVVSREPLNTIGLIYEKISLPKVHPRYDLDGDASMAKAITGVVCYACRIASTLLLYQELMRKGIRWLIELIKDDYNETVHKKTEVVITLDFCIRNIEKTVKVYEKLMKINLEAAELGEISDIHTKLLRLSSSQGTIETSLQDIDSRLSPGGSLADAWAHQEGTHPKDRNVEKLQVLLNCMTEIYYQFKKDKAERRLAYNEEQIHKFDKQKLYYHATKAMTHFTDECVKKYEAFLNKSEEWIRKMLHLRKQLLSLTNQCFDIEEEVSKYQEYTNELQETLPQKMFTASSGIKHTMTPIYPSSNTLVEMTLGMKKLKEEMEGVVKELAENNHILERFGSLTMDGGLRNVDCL
For another assay, the target named is IKKε (Homo sapiens (Human), UniProt Q14164). Briefly: TR-FRET kinase assay, IKKε. Format: biochemical. As to conditions: full length recombinant IKKε 0.3 nM, 2x Km ATP, 1 μM peptide, 240 min at 25° C.; geometric mean of minimum four determinations. The source says: Biological Assay for TBK1 and IKKs:

Chain of IKKε (Q14164 whole entry): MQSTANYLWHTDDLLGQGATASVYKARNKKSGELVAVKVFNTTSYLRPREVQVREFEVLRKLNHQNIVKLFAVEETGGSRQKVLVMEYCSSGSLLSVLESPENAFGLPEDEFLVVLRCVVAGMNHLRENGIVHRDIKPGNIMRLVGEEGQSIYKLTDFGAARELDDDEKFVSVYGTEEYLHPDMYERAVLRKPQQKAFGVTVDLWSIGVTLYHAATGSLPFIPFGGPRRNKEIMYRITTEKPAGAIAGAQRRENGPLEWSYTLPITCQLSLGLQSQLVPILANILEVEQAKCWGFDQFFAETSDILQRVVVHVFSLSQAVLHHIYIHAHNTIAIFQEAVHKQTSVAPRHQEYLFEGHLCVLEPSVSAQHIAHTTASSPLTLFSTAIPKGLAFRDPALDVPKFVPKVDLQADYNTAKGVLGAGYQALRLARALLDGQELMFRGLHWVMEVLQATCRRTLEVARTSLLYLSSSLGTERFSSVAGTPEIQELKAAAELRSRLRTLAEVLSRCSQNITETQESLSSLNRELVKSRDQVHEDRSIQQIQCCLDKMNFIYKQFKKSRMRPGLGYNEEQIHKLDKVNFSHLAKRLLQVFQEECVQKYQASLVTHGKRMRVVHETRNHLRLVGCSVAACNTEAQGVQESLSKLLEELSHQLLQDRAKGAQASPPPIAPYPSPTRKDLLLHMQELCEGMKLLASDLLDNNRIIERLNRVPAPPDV

Consider `COc1cc(-c2cc3c(-c4ccc(O[C@H]5CCNC[C@H]5F)c(C#N)c4)ncnc3[nH]2)ccc1N1CCN(C2COC2)CC1` [Example 144, 2-(((3R,4S)-3-fluoropiperidin-4-yl)oxy)-5-(6-(3-methoxy-4-(4-(oxetan-3-yl)piperazin-1-yl)phenyl)-7H-pyrrolo[2,3-d]pyrimidin-4-yl)benzonitrile], for which the 50% inhibitory concentration (IC50) is 6.17 nM on TBK1 and 64.4 nM on IKKε.

With `CN1CCN(c2ccc(-c3nc4c(-c5ccc(OC6CCN(C(=O)C(F)F)CC6)c(C#N)c5)ncnc4[nH]3)cc2)CC1` [Example 268, 2-((1-(2,2-difluoroacetyl)piperidin-4-yl)oxy)-5-(8-(4-(4-methylpiperazin-1-yl)phenyl)-9H-purin-6-yl)benzonitrile], the 50% inhibitory concentration (IC50) came to 3.92 nM on TBK1 and 2.25 nM on IKKε.

Regarding `N#Cc1cc(-c2ncnc3[nH]c(-c4ccc(N5CCOCC5)cc4)cc23)ccc1OC1CCOCC1` [Example 101, 5-(6-(4-morpholinophenyl)-7H-pyrrolo[2,3-d]pyrimidin-4-yl)-2-((tetrahydro-2H-pyran-4-yl)oxy)benzonitrile], the results for the IC50 at TBK1 and on IKKε were 1.72 nM and 8.06 nM, respectively.

As to `COc1ccc(-c2cc3c(-c4ccc(OC5CCNCC5)c(C#N)c4)ncnc3[nH]2)cc1` [Example 123, 5-(6-(4-methoxyphenyl)-7H-pyrrolo[2,3-d]pyrimidin-4-yl)-2-(piperidin-4-yloxy)benzonitrile], the 50% inhibitory concentration (IC50) at TBK1 stood at 22.4 nM; at IKKε it was 65.8 nM.

Consider `N#Cc1cc(-c2ccnc3[nH]c(-c4ccc(N5CCOCC5)cc4)cc23)ccc1N1CCCC1` [Example 49, 5-(2-(4-morpholinophenyl)-1H-pyrrolo[2,3-b]pyridin-4-yl)-2-(pyrrolidin-1-yl)benzonitrile], for which the IC50 on TBK1 was 7.05 nM; on IKKε, over 78 nM.

On to `N#CCC(=O)N1CC[C@H](Oc2ccc(-c3ccnc4[nH]c(-c5ccc(N6CCOCC6)cc5)cc34)cc2C#N)C1` [Example 24, (S)-2-((1-(2-cyanoacetyl)pyrrolidin-3-yl)oxy)-5-(2-(4-morpholinophenyl)-1H-pyrrolo[2,3-b]pyridin-4-yl)benzonitrile], for which the IC50 at TBK1 turned out to be 56.8 nM; on IKKε, 321 nM.

As to `N#Cc1cc(-c2ccnc3[nH]c(-c4ccc(N5CCOCC5)cc4)cc23)ccc1O[C@H]1CCN(C(=O)CO)C1` [Example 23, (S)-2-((1-(2-hydroxyacetyl)pyrrolidin-3-yl)oxy)-5-(2-(4-morpholinophenyl)-1H-pyrrolo[2,3-b]pyridin-4-yl)benzonitrile], the half-inhibitory concentration (IC50) on TBK1 was 16.2 nM; at IKKε it was 64.9 nM.

As to `N#Cc1cc(-c2ncnc3[nH]c(-c4ccc(CN5CCOCC5)cc4)nc23)ccc1OC1CCN(C(=O)C(F)F)CC1` [Example 266, 2-((1-(2,2-difluoroacetyl)piperidin-4-yl)oxy)-5-(8-(4-(morpholinomethyl)phenyl)-9H-purin-6-yl)benzonitrile], the results for the IC50 on TBK1 and at IKKε were 8.87 nM and 7.95 nM, respectively.

Turning to `N#Cc1cc(-c2ccnc3[nH]c(-c4ccc5c(c4)OCC(=O)N5)cc23)ccc1OC1CCOCC1` [Example 75, 5-(2-(3-oxo-3,4-dihydro-2H-benzo[b][1,4]oxazin-7-yl)-1H-pyrrolo[2,3-b]pyridin-4-yl)-2-((tetrahydro-2H-pyran-4-yl)oxy)benzonitrile], the IC50 at TBK1 amounted to 6.28 nM; at IKKε it was 10.5 nM.

Take `CNC(=O)c1ccc(-c2cc3c(-c4ccc(OC5CCOCC5)c(C#N)c4)ccnc3[nH]2)cc1` [Example 41, 4-(4-(3-cyano-4-((tetrahydro-2H-pyran-4-yl)oxy)phenyl)-1H-pyrrolo[2,3-b]pyridin-2-yl)-N-methylbenzamide]: the figures for the IC50 at TBK1 and at IKKε were 3.08 nM and 5.59 nM, respectively.

For the compound `N#Cc1cc(-c2ccnc3[nH]c(-c4ccc(N5CCOCC5)cc4)cc23)ccc1OCC1CC1` [Example 80, 2-(cyclopropylmethoxy)-5-(2-(4-morpholinophenyl)-1H-pyrrolo[2,3-b]pyridin-4-yl)benzonitrile], the IC50 on TBK1 was 16.8 nM; on IKKε, over 1000 nM.

As to `N#Cc1cc(-c2ccnc3[nH]c(-c4ccc(N5CCOCC5)cc4)cc23)ccc1O[C@@H]1CCN(C(=O)CO)C1` [Example 15, (R)-2-((1-(2-hydroxyacetyl)pyrrolidin-3-yl)oxy)-5-(2-(4-morpholinophenyl)-1H-pyrrolo[2,3-b]pyridin-4-yl)benzonitrile], the half-maximal inhibitory concentration (IC50) at TBK1 is 1.34 nM; at IKKε, 2.45 nM.

For the compound `N#Cc1cc(-c2ncnc3[nH]c(-c4ccc(C5CCN(CC(F)F)CC5)cc4)nc23)ccc1OC1CCNCC1` [Example 260, 5-(8-(4-(1-(2,2-difluoroethyl)piperidin-4-yl)phenyl)-9H-purin-6-yl)-2-(piperidin-4-yloxy)benzonitrile], the values for the half-maximal inhibitory concentration (IC50) on TBK1 and at IKKε were 26 nM and 84.4 nM, respectively.

As for `N#Cc1cc(-c2ncnc3[nH]c(-c4ccc(N5CCOCC5)c(F)c4)nc23)ccc1OC1CCN(C(=O)CO)CC1` [Example 241, 5-(8-(3-fluoro-4-morpholinophenyl)-9H-purin-6-yl)-2-((1-(2-hydroxyacetyl)piperidin-4-yl)oxy)benzonitrile], the values for the IC50 at TBK1 and at IKKε were 1.3 nM and 2.64 nM, respectively.

With `Cn1nccc1-c1cc2c(-c3ccc(OC4CCOCC4)c(C#N)c3)ccnc2[nH]1` [Example 181, 5-(2-(1-methyl-1H-pyrazol-5-yl)-1H-pyrrolo[2,3-b]pyridin-4-yl)-2-((tetrahydro-2H-pyran-4-yl)oxy)benzonitrile], the figures for the half-maximal inhibitory concentration (IC50) on TBK1 and on IKKε were 23.9 nM and 34.8 nM, respectively.

Regarding `N#Cc1nc(-c2ccnc3[nH]c(-c4ccc(N5CCOCC5)cc4)nc23)ccc1OC1CCOCC1` [Example 304, 6-(2-(4-morpholinophenyl)-3H-imidazo[4,5-b]pyridin-7-yl)-3-((tetrahydro-2H-pyran-4-yl)oxy)picolinonitrile], the IC50 at TBK1 was 9.25 nM; at IKKε, 18.6 nM.

On to `N#Cc1cc(-c2ccnc3[nH]c(-c4ccc(N5CCOCC5)cc4)cc23)ccc1OC1CCNCC1` [Example 18, 5-(2-(4-morpholinophenyl)-1H-pyrrolo[2,3-b]pyridin-4-yl)-2-(piperidin-4-yloxy)benzonitrile], for which the concentration for half-maximal inhibition (IC50) is 17.1 nM on TBK1 and 33.2 nM on IKKε.

As for `N#Cc1cc(-c2ccnc3[nH]c(-c4cccnc4)cc23)ccc1OC1CCOCC1` [Example 7, 5-(2-(pyridin-3-yl)-1H-pyrrolo[2,3-b]pyridin-4-yl)-2-((tetrahydro-2H-pyran-4-yl)oxy)benzonitrile], the IC50 at TBK1 was found to be 11.8 nM; on IKKε it was 17 nM.

On to `CC(C)(O)c1ccc(-c2cc3c(-c4ccc(OC5CCOCC5)c(C#N)c4)c(F)cnc3[nH]2)cc1` [Example 173, 5-(5-fluoro-2-(4-(2-hydroxypropan-2-yl)phenyl)-1H-pyrrolo[2,3-b]pyridin-4-yl)-2-((tetrahydro-2H-pyran-4-yl)oxy)benzonitrile], for which the 50% inhibitory concentration (IC50) on TBK1 is 15.6 nM; on IKKε it was 115 nM.

As for `COc1cc(-c2cc3c(-c4ccc(N5CC[C@@H](O)C5)c(C#N)c4)ncnc3[nH]2)ccc1N1CCN(C2COC2)CC1` [Example 142, (R)-2-(3-hydroxypyrrolidin-1-yl)-5-(6-(3-methoxy-4-(4-(oxetan-3-yl)piperazin-1-yl)phenyl)-7H-pyrrolo[2,3-d]pyrimidin-4-yl)benzonitrile], the IC50 on TBK1 came out at 2.03 nM; on IKKε it was 14.7 nM.

Broadly, the IC50 is the point on the concentration scale where inhibition reaches its midpoint.
